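Each compound was tested at five concentrations against cells in 96-well plates for 48 hours. Here, GI50 denotes the concentration required for 50% inhibition of growth.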 Calls of active or inactive are those of the source. Cut-off read from the data, not from the text of the source: active = GI50 up to about 1.1 µM and inactive = higher. Where a SMILES comes first, the peptide text is derived from it. Bridges are numbered along the chain shown (N, C = ends). [ ]: non-standard residue; d: D form. The star is where a group is joined. ξ: configuration not given here. X28 = O=C(/C=C/C=C/C=C/C=C/C=C/C(=O)*)NC1=C(O)CCC1=O; NMeA = CN[C@@H](C)C(=O)O; ξF = NC(Cc1ccccc1)C(=O)O; ξA = CC(N)C(=O)O Where only a bound is given, the exact number is not on record here.

The text below walks through data of ChEMBL document CHEMBL1201862, “PubChem BioAssay data set” (2004).

Some test systems named below: A498; CAKI-1; HCT-116; HT-29; IGROV-1; KM12; LOX IMVI; M14; NCI-H226; NCI-H460; NCI-H522; OVCAR-4; OVCAR-5; SF-295; SF-539; SK-MEL-5; SNB-19; UACC-62; DU-145; MDA-N.
Assay in all cases: NCI-60 cell line screen, 48 h

Take `COC(=O)C(Cc1c[nH]c2ccccc12)NC(=O)C(Cc1c[nH]c2ccccc12)NC(=O)OCc1ccccc1` (centres undefined): the GI50 with A498 is 72.8 µM (inactive); in the assay with CAKI-1 it was 19.9 µM (inactive); with HCT-116 it was 17.9 µM (inactive); in the assay on HT-29 it was 20 µM (inactive); in the assay with IGROV-1, 19.3 µM (inactive); in the assay on KM12, 19.1 µM (inactive). The GI50 in the assay with LOX IMVI is 18.3 µM (inactive); with M14, 18.2 µM (inactive); with NCI-H226 it was 22.1 µM (inactive); with NCI-H460, 18.1 µM (inactive); in the assay on NCI-H522 it was 16.3 µM (inactive); with OVCAR-4, 16.4 µM (inactive). Further, the GI50 with OVCAR-5 was 17.6 µM (inactive); in the assay on SF-295 it was 17.9 µM (inactive); with SF-539, 16.7 µM (inactive); in the assay on SK-MEL-5, 29.5 µM (inactive); with SNB-19, 17.5 µM (inactive); in the assay with UACC-62 it was 19.3 µM (inactive).
Turning to `O=C(NCC#CCO)C(F)(F)F`, the GI50 with A498, in the assay on CAKI-1, with HCT-116, with HT-29, in the assay with IGROV-1 and in the assay on KM12 was > 100 µM (inactive) in each case. Moreover, the GI50 with LOX IMVI, in the assay with M14, with NCI-H226, with NCI-H460, in the assay with NCI-H522 and with OVCAR-4 was > 100 µM (inactive) throughout. In addition, the GI50 in the assay with OVCAR-5 was > 100 µM (inactive); in the assay with SF-295, > 10 µM (inactive); in the assay with SF-539, > 100 µM (inactive); with SK-MEL-5, > 100 µM (inactive); in the assay on SNB-19, > 100 µM (inactive); with UACC-62, > 100 µM (inactive).
Consider `O=S(=O)(O)c1ccc2c(/N=N/c3ccc(/N=N/c4ccccc4)cc3)c(O)c(S(=O)(=O)O)cc2c1`, for which the GI50 in the assay on CAKI-1 was > 100 µM (inactive); with DU-145 it was > 100 µM (inactive); in the assay on HCT-116, 50.1 µM (inactive); in the assay with HT-29 it was > 100 µM (inactive); in the assay on IGROV-1 it was > 100 µM (inactive); in the assay on KM12, > 100 µM (inactive). For the same compound, the GI50 with M14, in the assay with MDA-N, with NCI-H226, with NCI-H460, in the assay with NCI-H522 and in the assay on OVCAR-4 was > 100 µM (inactive) each time. Further, the GI50 in the assay on OVCAR-5, in the assay on SF-295, in the assay on SF-539, in the assay with SK-MEL-5, in the assay on SNB-19 and with UACC-62 was > 100 µM (inactive) in each case.
In the case of `CN/N=C(\C)CC(=O)Nc1cccc(Cl)c1C`, the GI50 in the assay on A498, in the assay with CAKI-1, in the assay with HCT-116, in the assay with HT-29, in the assay on IGROV-1 and with KM12 was > 100 µM (inactive) in each case. Besides, the GI50 in the assay on LOX IMVI was > 100 µM (inactive); with M14, > 100 µM (inactive); in the assay on NCI-H226, > 100 µM (inactive); in the assay with NCI-H460, > 100 µM (inactive); in the assay with NCI-H522 it was 38.6 µM (inactive); in the assay on OVCAR-4 it was > 100 µM (inactive). Also, the GI50 in the assay with OVCAR-5, in the assay on SF-295, with SF-539, in the assay with SK-MEL-5, with SNB-19 and with UACC-62 was > 100 µM (inactive) in each case.
Regarding `Nc1nc2ccc(Sc3ccc4nc(N)[nH]c(=O)c4c3)cc2c(=O)[nH]1`, the GI50 with CAKI-1 was > 100 µM (inactive); with DU-145 it was > 100 µM (inactive); with HCT-116, > 100 µM (inactive); with HT-29, > 100 µM (inactive); in the assay on IGROV-1, 61.1 µM (inactive); in the assay on KM12, > 100 µM (inactive). The GI50 in the assay with M14 is > 100 µM (inactive); with NCI-H226, 14.1 µM (inactive); in the assay on NCI-H460 it was > 100 µM (inactive); in the assay on NCI-H522 it was > 100 µM (inactive); in the assay on OVCAR-4 it was > 100 µM (inactive); in the assay on OVCAR-5, > 100 µM (inactive). In addition, the GI50 in the assay on SF-295 was 59.2 µM (inactive); with SF-539 it was > 100 µM (inactive); with SK-MEL-5 it was > 100 µM (inactive); in the assay with SNB-19, > 100 µM (inactive); in the assay on UACC-62 it was > 100 µM (inactive).
With `COc1ccc(C(=O)C(C(=O)CCC(=O)Nc2ccc(Cl)c(Cl)c2)c2ccc(OC)cc2)cc1` (centres undefined), the GI50 in the assay on A498, in the assay with CAKI-1, in the assay with HCT-116, with HT-29, in the assay on IGROV-1 and with KM12 was > 100 µM (inactive) in each case. Besides, the GI50 in the assay on LOX IMVI, in the assay on M14, in the assay with NCI-H226, in the assay with NCI-H460, in the assay with NCI-H522 and in the assay with OVCAR-4 was > 100 µM (inactive) each time. The GI50 with OVCAR-5, in the assay on SF-295, with SF-539, in the assay with SK-MEL-5, with SNB-19 and in the assay with UACC-62 was > 100 µM (inactive) throughout.
Regarding `C=C(C)[C@@H]1CCC2=C[C@H](C/C(C)=C\C3=CC(C)=C(O3)[C@H]1O)OC2=O`, the GI50 with A498 was > 100 µM (inactive); in the assay on CAKI-1, > 100 µM (inactive); in the assay with DU-145, > 100 µM (inactive); in the assay on IGROV-1 it was 93.1 µM (inactive); in the assay with KM12, > 100 µM (inactive); with LOX IMVI, > 100 µM (inactive). The GI50 in the assay on M14 was > 100 µM (inactive); in the assay on NCI-H226, 36.1 µM (inactive); in the assay with NCI-H460, > 100 µM (inactive); with NCI-H522, 68.5 µM (inactive); with OVCAR-4, 60 µM (inactive); in the assay with OVCAR-5, > 100 µM (inactive). In addition, the GI50 with SF-295 is 80.9 µM (inactive); in the assay with SF-539, 48.5 µM (inactive); in the assay with SK-MEL-5, > 100 µM (inactive); in the assay on SNB-19, > 100 µM (inactive); with UACC-62, 93.5 µM (inactive).
For `CN(CCNC(=S)c1cn(C)c2c1ccc1ccccc12)CCNC(=S)c1cn(C)c2c1ccc1ccccc12`, the GI50 is > 100 µM (inactive) in the assay on CAKI-1; 48.2 µM (inactive) in the assay with DU-145; 24.4 µM (inactive) in the assay with HCT-116; 27.5 µM (inactive) in the assay on HT-29; 29.4 µM (inactive) with IGROV-1; 37.1 µM (inactive) with KM12. Moreover, the GI50 with LOX IMVI was 18.5 µM (inactive); in the assay with NCI-H460, 71.8 µM (inactive); in the assay on NCI-H522, 51.2 µM (inactive); in the assay with OVCAR-4 it was 11.3 µM (inactive); with OVCAR-5, > 100 µM (inactive); with SF-295, 99.3 µM (inactive). The GI50 in the assay on SF-539 is 47.6 µM (inactive); in the assay with SK-MEL-5, > 100 µM (inactive); in the assay with SNB-19 it was > 100 µM (inactive); with UACC-62, > 100 µM (inactive).
For `C=CC1=CC(C)C[C@]1(O)C(=O)OC` (some centres undefined), the GI50 in the assay on A498, in the assay on CAKI-1, in the assay on HCT-116, with HT-29, with IGROV-1 and in the assay on KM12 was < 0.01 µM (active) each time. Further, the GI50 was < 0.01 µM (active) in the assay with LOX IMVI; < 0.01 µM (active) with M14; < 0.01 µM (active) in the assay on NCI-H226; < 0.01 µM (active) with NCI-H460; > 100 µM (inactive) with NCI-H522; < 0.01 µM (active) in the assay with OVCAR-4. Moreover, the GI50 in the assay with OVCAR-5 is < 0.01 µM (active); in the assay on SF-295 it was < 0.01 µM (active); in the assay on SF-539 it was > 100 µM (inactive); in the assay on SK-MEL-5 it was > 100 µM (inactive); in the assay with SNB-19, < 0.01 µM (active); in the assay on UACC-62, < 0.01 µM (active).
For `O=C1/C(=C/c2cccc(Br)c2)CCc2ccccc21`, the GI50 in the assay on CAKI-1 is 16 µM (inactive); in the assay on DU-145, 17.2 µM (inactive); with HCT-116, 7.69 µM (inactive); in the assay on HT-29, 10.9 µM (inactive); with IGROV-1, 11.4 µM (inactive); in the assay on KM12, 4.02 µM (inactive). Moreover, the GI50 was 12.8 µM (inactive) with LOX IMVI; 15.8 µM (inactive) with M14; 10.8 µM (inactive) with MDA-N; 15.2 µM (inactive) with NCI-H226; 15.2 µM (inactive) in the assay with NCI-H460; 10.6 µM (inactive) in the assay on NCI-H522. For the same compound, the GI50 is 13.1 µM (inactive) in the assay with OVCAR-4; 14.9 µM (inactive) with OVCAR-5; 15.2 µM (inactive) in the assay with SF-295; 17.5 µM (inactive) in the assay on SF-539; 14.7 µM (inactive) with SNB-19; 10.5 µM (inactive) with UACC-62.
For `CC1NC(=O)[C@H](C)N(C)C(=O)[C@@H]2CCCN2C(=O)[C@@H](NC(=O)C(Cc2ccccc2)NC(=O)/C=C/C=C/C=C/C=C/C=C/C(=O)NC2=C(O)CCC2=O)COC(=O)[C@@H]2CCCN2C1=O` (some centres undefined) (X28-[ξF]SP[NMeA][ξA]P; ester 2-C), the GI50 is 40.4 µM (inactive) in the assay on CAKI-1; 89.3 µM (inactive) in the assay on DU-145; > 100 µM (inactive) in the assay on HCT-116; > 100 µM (inactive) in the assay with HT-29; > 100 µM (inactive) in the assay with IGROV-1; 58.9 µM (inactive) with KM12. For the same compound, the GI50 with LOX IMVI, in the assay on M14, in the assay on MDA-N, in the assay with NCI-H460, in the assay with NCI-H522 and with OVCAR-4 was > 100 µM (inactive) throughout. In addition, the GI50 in the assay with OVCAR-5, in the assay on SF-295, in the assay on SF-539, in the assay on SK-MEL-5, in the assay on SNB-19 and in the assay with UACC-62 was > 100 µM (inactive) in each case.
